Data: ChEMBL document CHEMBL1201862, “PubChem BioAssay data set” (2004)
The source made the active and inactive calls.

Assays:
[1] = molecular target: T1, Short transient receptor potential channel 4 (Mus musculus, UniProt Q9QUQ5); experiment: mouse TRPC4 channel inhibitors, dose response, cell-based, HEK293 TRPC4/mu-opioid, Fluo-4 calcium (AID 434942); format: functional;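 note: potency of inhibitors blocking the TRPC4 calcium response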
T1 sequence (Q9QUQ5 whole entry): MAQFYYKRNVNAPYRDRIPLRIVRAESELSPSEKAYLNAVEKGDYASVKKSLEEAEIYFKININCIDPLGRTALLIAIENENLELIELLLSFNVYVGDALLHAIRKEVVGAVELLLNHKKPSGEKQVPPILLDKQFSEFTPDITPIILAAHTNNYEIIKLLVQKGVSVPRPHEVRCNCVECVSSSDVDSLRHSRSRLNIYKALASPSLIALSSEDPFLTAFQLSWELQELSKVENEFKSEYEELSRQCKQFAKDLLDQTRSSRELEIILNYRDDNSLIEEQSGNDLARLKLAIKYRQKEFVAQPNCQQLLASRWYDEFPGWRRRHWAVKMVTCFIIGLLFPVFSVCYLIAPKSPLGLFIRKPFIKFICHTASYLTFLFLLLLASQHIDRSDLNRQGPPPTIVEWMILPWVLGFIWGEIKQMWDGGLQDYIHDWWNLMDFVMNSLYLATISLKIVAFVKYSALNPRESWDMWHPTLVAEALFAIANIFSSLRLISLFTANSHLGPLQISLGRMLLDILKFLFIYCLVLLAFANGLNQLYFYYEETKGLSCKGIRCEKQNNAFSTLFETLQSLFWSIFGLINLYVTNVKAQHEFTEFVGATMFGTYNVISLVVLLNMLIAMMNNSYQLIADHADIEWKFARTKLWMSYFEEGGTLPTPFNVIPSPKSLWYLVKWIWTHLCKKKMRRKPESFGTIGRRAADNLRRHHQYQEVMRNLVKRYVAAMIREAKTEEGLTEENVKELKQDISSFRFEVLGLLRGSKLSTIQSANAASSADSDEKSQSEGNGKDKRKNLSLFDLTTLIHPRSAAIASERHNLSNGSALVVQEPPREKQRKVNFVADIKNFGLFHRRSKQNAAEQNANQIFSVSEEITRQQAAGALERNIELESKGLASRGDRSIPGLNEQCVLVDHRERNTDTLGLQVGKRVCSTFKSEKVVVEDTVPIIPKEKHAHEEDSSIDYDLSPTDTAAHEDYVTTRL

[2] = molecular target: Induced myeloid leukemia cell differentiation protein Mcl-1 (Homo sapiens, UniProt Q07820); format: functional
Sequence of Induced myeloid leukemia cell differentiation protein Mcl-1 (Q07820 whole entry): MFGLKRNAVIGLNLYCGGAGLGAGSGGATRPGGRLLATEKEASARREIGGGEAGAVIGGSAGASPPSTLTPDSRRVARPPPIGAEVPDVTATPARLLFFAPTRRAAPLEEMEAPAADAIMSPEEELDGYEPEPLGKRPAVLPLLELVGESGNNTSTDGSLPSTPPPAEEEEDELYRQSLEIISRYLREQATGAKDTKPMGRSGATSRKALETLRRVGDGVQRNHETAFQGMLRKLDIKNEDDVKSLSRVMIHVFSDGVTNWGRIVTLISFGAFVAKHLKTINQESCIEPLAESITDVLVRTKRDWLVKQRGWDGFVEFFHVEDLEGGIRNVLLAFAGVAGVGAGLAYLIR

[3] = molecular target: FAD-linked sulfhydryl oxidase ALR (Homo sapiens, UniProt P55789); experiment: inhibitors of human ALR sulfhydryl oxidase, dose response, biochemical, H2O2 detection, luminescence, cherry-pick (AID 493248)
Sequence of FAD-linked sulfhydryl oxidase ALR (P55789 whole entry): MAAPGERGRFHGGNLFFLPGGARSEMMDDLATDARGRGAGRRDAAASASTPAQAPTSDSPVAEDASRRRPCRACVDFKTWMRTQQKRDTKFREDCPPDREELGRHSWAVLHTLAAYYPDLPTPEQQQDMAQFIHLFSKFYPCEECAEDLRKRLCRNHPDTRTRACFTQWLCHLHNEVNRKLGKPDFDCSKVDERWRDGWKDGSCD

[4] = system: H9c2; experiment: cells; format: functional, cell-based; conditions: Rattus norvegicus, H9c2, Myocardium;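 note: confirmatory concentration-response retest of ultra-high-throughput screening hits for modulation of myocardial damage; cell death induced by hydrogen peroxide oxidative stress; compound pretreatment for 60 min then peroxide exposure for 2 h; potency is for protecting the cells against peroxide damage rather than for killing them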
[5] = molecular target: T2, Rac GTPase-activating protein 1 (Homo sapiens, UniProt Q9H0H5); experiment: MgcRacGAP GTPase-activating activity inhibitors, confirmation, biochemical, ADP Hunter fluorescence, primary and confirmatory (AID 624330); format: functional
T2 sequence (Q9H0H5 whole entry): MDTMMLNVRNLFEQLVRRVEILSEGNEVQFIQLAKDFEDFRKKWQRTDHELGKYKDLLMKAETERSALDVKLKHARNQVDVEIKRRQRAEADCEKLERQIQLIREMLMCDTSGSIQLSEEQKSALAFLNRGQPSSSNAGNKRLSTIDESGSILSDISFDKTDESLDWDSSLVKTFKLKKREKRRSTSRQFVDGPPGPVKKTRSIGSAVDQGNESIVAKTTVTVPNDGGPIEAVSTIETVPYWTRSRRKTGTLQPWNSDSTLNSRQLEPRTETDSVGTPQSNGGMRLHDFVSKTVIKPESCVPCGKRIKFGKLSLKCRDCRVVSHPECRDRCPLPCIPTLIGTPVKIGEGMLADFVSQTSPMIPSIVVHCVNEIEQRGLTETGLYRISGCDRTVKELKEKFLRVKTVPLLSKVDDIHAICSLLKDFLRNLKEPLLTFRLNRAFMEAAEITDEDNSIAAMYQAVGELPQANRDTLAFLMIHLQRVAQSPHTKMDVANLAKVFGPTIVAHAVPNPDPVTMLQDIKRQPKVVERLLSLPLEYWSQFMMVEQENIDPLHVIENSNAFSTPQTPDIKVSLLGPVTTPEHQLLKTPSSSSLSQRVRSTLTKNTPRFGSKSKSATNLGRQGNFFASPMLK

[6] = Luminescence Cell-Based Dose Confirmation HTS to Identify Activators of 5'UTR Stem-Loop Driven Alpha-Synuclein mRNA Translation in H4 Neuroglioblastoma Cells. [Related pubchem assays: 1829 (Project Summary), 1814 (Primary HTS)]; format: functional
[7] = Luminescence Cell-Based Dose Response HTS to Identify Activators of Luciferase Translation or Activity in H4 […] Cells. [Related pubchem assays: 1829 (Project Summary), 1814 (Primary HTS)]; format: functional
[8] = system: H4; experiment: Luminescence Cell-Based Dose Response HTS to Identify Activators of 5'UTR Stem-Loop Driven Prion Protein mRNA Translation in H4 Neuroglioblastoma Cells. [Related pubchem assays: 1829 (Project Summary), 1814 (Primary HTS)]; format: functional; conditions: Homo sapiens
[9] = molecular target: T3, Calpain-2 catalytic subunit (Sus scrofa, UniProt P43367); experiment: pig calpain II inhibitor potency, dose response, biochemical, fluorogenic peptide substrate (AID 1420); format: functional
T3 sequence (P43367 whole entry): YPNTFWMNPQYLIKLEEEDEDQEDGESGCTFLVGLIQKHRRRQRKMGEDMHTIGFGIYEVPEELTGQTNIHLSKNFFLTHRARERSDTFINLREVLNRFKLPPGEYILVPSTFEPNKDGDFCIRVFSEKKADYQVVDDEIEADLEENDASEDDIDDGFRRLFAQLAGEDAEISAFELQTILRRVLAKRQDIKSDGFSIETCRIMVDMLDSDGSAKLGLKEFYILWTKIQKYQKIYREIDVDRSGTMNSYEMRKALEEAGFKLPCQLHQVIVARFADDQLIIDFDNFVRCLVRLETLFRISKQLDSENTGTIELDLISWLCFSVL

[10] = molecular target: T4, Ubiquitin-conjugating enzyme E2 N (Homo sapiens, UniProt P61088); format: functional;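 note: Dose-response confirmation in a TR-FRET assay detecting UBC13-driven polyubiquitin chain formation, inhibition measured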
T4 sequence (P61088 whole entry): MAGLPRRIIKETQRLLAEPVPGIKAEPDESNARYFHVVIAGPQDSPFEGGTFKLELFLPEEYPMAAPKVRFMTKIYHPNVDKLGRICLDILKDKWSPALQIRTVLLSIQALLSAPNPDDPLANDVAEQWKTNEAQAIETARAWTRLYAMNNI

[11] = control 3'UTR Renilla luciferase suppression, dose response, counter-screen for Shn3 inhibitor project, cell-based, Clone20-Shn3RL, cherry-picked (AID 624133); format: functional
[12] = Shn3 3'UTR reporter inhibitors, dose response, cell-based, Clone20 osteoblasts, firefly luciferase, cherry-picked (AID 624132); format: functional;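 note: firefly luciferase luminescence from reporter carrying the Shn3 3'UTR in osteoblasts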
[13] = HepG2 cell cytotoxicity, dose response, cytotoxicity control for Shn3 inhibitor project, CellTiter-Glo, cherry-picked (AID 624134); format: functional, cell-based
[14] = molecular target: T5, Heat shock factor protein 1 (Mus musculus, UniProt P38532); experiment: HSF1 potentiators in luciferase reporter cells, confirmation, cell-based, NIH3T3, luminescence, dose retest (AID 435004); format: functional;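 note: stress induced by proteasome inhibitor MG132 added 30 min after compound; luciferase reporter driven by HSF1 response element in NIH3T3 cells; actives raise luminescence as potentiators of the MG132 stress response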
T5 sequence (P38532 whole entry): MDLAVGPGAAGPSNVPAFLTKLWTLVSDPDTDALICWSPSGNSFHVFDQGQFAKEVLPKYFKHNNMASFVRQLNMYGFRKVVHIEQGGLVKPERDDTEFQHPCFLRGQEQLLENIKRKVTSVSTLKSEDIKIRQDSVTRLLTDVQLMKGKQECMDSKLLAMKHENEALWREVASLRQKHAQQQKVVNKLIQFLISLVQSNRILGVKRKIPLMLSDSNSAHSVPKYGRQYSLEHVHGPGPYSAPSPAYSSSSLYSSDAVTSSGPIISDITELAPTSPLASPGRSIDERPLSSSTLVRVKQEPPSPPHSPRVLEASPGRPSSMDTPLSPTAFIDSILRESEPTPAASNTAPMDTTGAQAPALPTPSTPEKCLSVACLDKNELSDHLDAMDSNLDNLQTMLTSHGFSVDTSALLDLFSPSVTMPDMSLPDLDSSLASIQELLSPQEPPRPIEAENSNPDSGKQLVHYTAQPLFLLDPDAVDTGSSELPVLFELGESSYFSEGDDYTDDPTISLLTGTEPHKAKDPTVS

[15] = system: BJ; experiment: cells; format: functional, cell-based; conditions: Homo sapiens
[16] = system: BJ; experiment: cytotoxicity toward BJ-TERT fibroblasts, dose response, cell-based, RAS-independent, luminescence (AID 1933); format: functional; conditions: Homo sapiens
[17] = cytotoxicity toward DRD oncogenic fibroblasts, dose response, cell-based, non-viral oncogenic, luminescence (AID 1934); format: functional; conditions: Homo sapiens
[18] = system: BJ; experiment: cytotoxicity toward BJ-TERT-LT-ST fibroblasts, dose response, cell-based, RAS-independent, luminescence (AID 1935); format: functional; conditions: Homo sapiens;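 note: BJ fibroblasts immortalized with TERT plus LT and ST oncogenes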
[19] = molecular target: Cytochrome P450 2C9 (Homo sapiens, UniProt P11712)
Sequence of Cytochrome P450 2C9 (P11712 whole entry): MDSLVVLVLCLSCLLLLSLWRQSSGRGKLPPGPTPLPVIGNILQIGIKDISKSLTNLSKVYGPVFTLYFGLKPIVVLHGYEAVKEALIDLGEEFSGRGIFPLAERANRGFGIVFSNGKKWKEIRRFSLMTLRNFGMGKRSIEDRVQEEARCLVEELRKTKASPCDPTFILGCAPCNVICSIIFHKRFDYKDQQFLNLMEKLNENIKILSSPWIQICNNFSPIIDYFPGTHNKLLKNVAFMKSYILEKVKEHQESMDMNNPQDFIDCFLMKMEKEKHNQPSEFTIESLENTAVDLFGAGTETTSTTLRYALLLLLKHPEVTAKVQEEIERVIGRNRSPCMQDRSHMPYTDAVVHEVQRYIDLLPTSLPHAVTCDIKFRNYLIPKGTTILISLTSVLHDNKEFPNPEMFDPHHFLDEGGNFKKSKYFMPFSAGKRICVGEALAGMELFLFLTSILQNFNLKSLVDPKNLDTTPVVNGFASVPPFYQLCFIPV

[20] = molecular target: Cytochrome P450 2D6 (Homo sapiens, UniProt P10635);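 note: CYP2D6 member of a cytochrome P450 panel assay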
Sequence of Cytochrome P450 2D6 (P10635 whole entry): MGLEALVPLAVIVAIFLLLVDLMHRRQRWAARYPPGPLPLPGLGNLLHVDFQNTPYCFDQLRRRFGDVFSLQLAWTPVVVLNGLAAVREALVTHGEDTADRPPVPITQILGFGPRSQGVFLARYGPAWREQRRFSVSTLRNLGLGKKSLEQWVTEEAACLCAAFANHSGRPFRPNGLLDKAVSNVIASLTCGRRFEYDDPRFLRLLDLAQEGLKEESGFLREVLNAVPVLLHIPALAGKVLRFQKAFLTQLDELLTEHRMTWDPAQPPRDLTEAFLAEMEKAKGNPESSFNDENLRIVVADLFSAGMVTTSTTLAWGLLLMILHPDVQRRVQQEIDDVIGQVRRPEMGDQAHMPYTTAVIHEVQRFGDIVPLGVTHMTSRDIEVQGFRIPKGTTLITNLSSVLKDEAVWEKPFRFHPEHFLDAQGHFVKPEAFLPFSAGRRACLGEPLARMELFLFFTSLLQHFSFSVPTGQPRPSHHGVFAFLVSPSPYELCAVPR

[21] = molecular target: Cytochrome P450 2C19 (Homo sapiens, UniProt P33261); experiment: Cytochrome panel assay with activity outcomes. Panel member name: p450-cyp2c19 Compounds with AC50 equal or less than 10 uM are considered active; format: functional; conditions: read-out: AC50
Sequence of Cytochrome P450 2C19 (P33261 whole entry): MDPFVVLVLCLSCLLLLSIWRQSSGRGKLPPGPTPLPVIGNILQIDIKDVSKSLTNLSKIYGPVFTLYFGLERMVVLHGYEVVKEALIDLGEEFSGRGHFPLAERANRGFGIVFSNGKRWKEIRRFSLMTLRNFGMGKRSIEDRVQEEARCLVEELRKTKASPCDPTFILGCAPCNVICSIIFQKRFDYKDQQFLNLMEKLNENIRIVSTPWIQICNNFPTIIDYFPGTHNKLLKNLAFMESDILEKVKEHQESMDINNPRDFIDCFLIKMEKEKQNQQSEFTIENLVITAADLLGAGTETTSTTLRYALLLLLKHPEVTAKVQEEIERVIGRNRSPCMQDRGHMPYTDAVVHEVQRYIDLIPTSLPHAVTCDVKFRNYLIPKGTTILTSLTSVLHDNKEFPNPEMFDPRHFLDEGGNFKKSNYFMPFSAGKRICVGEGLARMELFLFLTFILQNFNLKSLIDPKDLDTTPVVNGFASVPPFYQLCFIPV

[22] = molecular target: Large T antigen (Simian virus 40, UniProt P03070); format: functional, Betapolyomavirus macacae;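 note: Confirmatory-stage PubChem screen for compounds that inhibit SV40 T antigen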
Sequence of Large T antigen (P03070 whole entry): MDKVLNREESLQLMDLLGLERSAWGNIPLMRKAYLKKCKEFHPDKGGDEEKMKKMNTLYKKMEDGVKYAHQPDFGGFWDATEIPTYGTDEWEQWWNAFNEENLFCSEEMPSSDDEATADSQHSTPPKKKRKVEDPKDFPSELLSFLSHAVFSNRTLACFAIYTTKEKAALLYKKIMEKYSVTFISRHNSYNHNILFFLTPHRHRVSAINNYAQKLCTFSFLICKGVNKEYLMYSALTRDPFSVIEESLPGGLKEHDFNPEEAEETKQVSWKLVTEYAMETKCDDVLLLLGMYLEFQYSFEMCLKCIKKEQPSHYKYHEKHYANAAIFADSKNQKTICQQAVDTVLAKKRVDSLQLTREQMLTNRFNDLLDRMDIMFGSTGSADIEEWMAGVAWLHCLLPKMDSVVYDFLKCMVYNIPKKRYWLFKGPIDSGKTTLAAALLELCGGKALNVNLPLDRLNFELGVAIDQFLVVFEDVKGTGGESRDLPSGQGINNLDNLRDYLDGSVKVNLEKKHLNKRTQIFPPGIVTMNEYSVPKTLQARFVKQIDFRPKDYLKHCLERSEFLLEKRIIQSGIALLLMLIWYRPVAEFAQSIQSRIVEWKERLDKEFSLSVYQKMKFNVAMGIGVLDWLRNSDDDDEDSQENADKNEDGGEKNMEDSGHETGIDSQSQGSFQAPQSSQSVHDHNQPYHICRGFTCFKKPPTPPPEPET

Cc1cccc(C(=O)Nc2sc(-c3ccccc3)cc2C(=O)O)c1
EC50 [1]: 2.11 µM (active)

Cc1cccc(NC2=NC(=O)/C(=C/C=C/c3ccco3)S2)c1
IC50 [2]: 11.4 µM (active)

Nc1cc(C(F)(F)F)ccc1Nc1ccccc1
AC50 [3]: 14.6 µM (active) | EC50 [1]: 4.22 µM (active)

COCCCN(Cc1ccco1)C(=O)Cn1ncc2c3ccccc3nc-2c1O
IC50 [4]: > 79 µM (inactive)

COc1ccc(CN2CCN(Cc3ccccc3F)CC2)c(OC)c1
EC50 [1]: 4.22 µM (active) | IC50 [5]: 70.3 µM (active)

Clc1ccccc1CSc1nc2cc[nH]cc-2n1
EC50 [1]: 2.99 µM (active)

NC(=O)c1ccc(-n2nnnc2Oc2ccccc2C(=O)N2CCOCC2)cc1
EC50 [6]: 8.06 µM (active) | EC50 [7]: 31.4 µM (inconclusive) | EC50 [8]: > 120 µM (not active) | IC50 [9]: 3.94 µM (not active)

CCC(C)[C@H](Nc1nc(-c2ccccc2)nc2c1oc1ccccc12)C(=O)O (stereo partly specified)
EC50 [1]: 7.5 µM (active)

CN=C(S)N1CCN(C(c2ccccc2)c2ccccc2)CC1
EC50 [1]: 8.41 µM (active)

CN(CC(=O)Nc1ccc(F)cc1)C(=O)CCc1nc(O)c2ccccc2n1
IC50 [4]: > 79 µM (inactive)

Cc1cc(C)cc(OCC(=O)Nc2cccc(-c3nc4ncccc4o3)c2)c1
IC50 [4]: > 79 µM (inactive)

Cc1ccc(C)c(N2CCN(CCCNC(=O)CCC(=O)N3CCOc4ccc(Cl)cc43)CC2)c1
IC50 [10]: > 20 µM (inactive)

CCn1c(NCc2c[nH]c3ccccc23)nc2ccccc21
EC50 [1]: 3.35 µM (active)

O=C(Nc1ccc2c(c1)nc1n2CCN(C2CCCCC2)C1)c1ccco1
IC50 [2]: 6.52 µM (active)

NS(=O)(=O)c1ccc(CCNCc2cc(Br)ccc2OCc2ccccc2F)cc1
AC50 [11]: 8.75 µM (active) | AC50 [12]: 4.65 µM (active) | AC50 [13]: 36.9 µM (active) | IC50 [9]: > 50 µM (not active)

O=C(COC(=O)CC12CC3CC(CC(C3)C1)C2)Nc1cccnc1Cl
IC50 [9]: > 50 µM (not active)

CC(C)Cn1c(N)c(C(=O)COC(=O)CCc2nc(O)c3ccccc3n2)c(=O)n(C)c1=O
IC50 [4]: > 79 µM (inactive)

Cc1cn(Cc2ccccc2Cn2cc(C)c(=O)[nH]c2=O)c(=O)[nH]c1=O
EC50 [14]: > 260 µM (inactive)

Cc1nn2cc(-c3cccc(Cl)c3)cnc2c1Br
EC50 [15]: 68.2 µM (active) | EC50 [16]: 17.4 µM (active) | EC50 [17]: 16 µM (active) | EC50 [18]: 20.3 µM (active)

COc1cccc(NC(=O)CN(C)CC(=O)Nc2ccc(Cl)cc2[N+](=O)[O-])c1
IC50 [9]: 24 µM (not active)

COc1cc(C(=O)Nc2ccc(C)cc2)c2ccccc2n1
EC50 [15]: 22.9 µM (active) | EC50 [16]: 1.15 µM (inconclusive) | EC50 [17]: 0.707 µM (inconclusive) | EC50 [18]: 12.8 µM (inconclusive)

C#CCOCCOCCOCCNc1nc(N2CCN(C(=O)[C@H](CCCCN)n3cc([C@@H](N)CO)nn3)CC2)nc(N2CCN(C(=O)[C@H](CCCCN)n3cc([C@@H](N)CC(C)C)nn3)CC2)n1
IC50 [10]: > 20 µM (inactive)

COc1ccc(-c2cc(C(=O)N(C)Cc3ccc(OC)c(OC)c3OC)c3ccccc3n2)cc1OC
IC50 [4]: > 79 µM (inactive)

Oc1nc2cccc(Cl)c2c2ccccc12
IC50 [4]: 39.6 µM (inactive)

COc1ccc(/C=C/C(=O)Oc2cc(O)cc(O)c2)cc1
EC50 [1]: 3.76 µM (active)

CCOc1cc(/C=N/NC(N)=O)cc(Br)c1OCC(=O)Nc1cccc2ccccc12
IC50 [4]: > 79 µM (inactive)

COc1ccc(N(CC(=O)N/N=C/c2cccs2)S(=O)(=O)c2ccc(OC)c(OC)c2)cc1
AC50 [19]: 4.47 µM (inconclusive) | AC50 [20]: 31.6 µM (inconclusive) | AC50 [21]: 0.0178 µM (inconclusive) | IC50 [4]: > 79 µM (inactive)

COc1cc(/C=N\Nc2nc(-c3cccs3)c(NC(C)=O)s2)ccc1O
IC50 [22]: 27.8 µM (active) | IC50 [2]: 2.72 µM (active)
